Measured values from patent US9513280B2, “Microfluidic biological barrier model and associated method” (The University of Utah Research Foundation, priority 2012, dated 2016).
Read-outs that look alike come from different tables or passages of the source.

Tested on: co-cultured μBBB models (bEnd.3 endothelial cells and C8-D1A astrocytes)
Details: for period of transient TEER drop: co-cultured μBBB on day 4
Protocol: To evaluate the fabricated μBBB system, three methods were employed: (1) Cell imaging to observe structure and morphology, (2) TEER levels to evaluate cell confluence and tight junction integrity, and (3) permeability assays to evaluate barrier selectivity. Cells were imaged with a Live/Dead assay to verify cell viability, and immunostained to look at expression of astrocyte marker GFAP and tight junction component […] (ZO-1). TEER was measured as an indicator of cell confluence and tight junction integrity, with time to maximum TEER being indicative of BBB development time. Fluxes of fluorescent-labeled tracer molecules were measured to assess permeability to larger solutes. […] Permeability was measured in μBBB models exposed to DMEM:F12 media with elevated pH (>10) for 4 h.
Over the course of the μBBB model evaluation experiments, TEER was measured twice a day to monitor cell confluence and development of tight junctions. For measurement of TEER, voltage and current electrode wires were connected via an electrode adaptor (WPI) to an EVOM2 epithelial voltohmmeter (WPI). The EVOM2 passes a constant 10 μA AC current at 12.5 Hz while measuring resistance. To calculate TEER, initial D0 Background resistances Rb were subtracted from total resistance RC at each time point and normalized for area, giving TEER values in Ωcm^2 as in the following equation: TEER=(RC−Rb)A
TEER of transwell cultures were measured daily by placing them in an Endohm chamber (WPI) and connecting it to the EVOM2.

With `NCCc1c[nH]cn1` [histamine] the “time for TEER to return to initial levels” value (100 μM histamine) was “within six minutes”, the “period of transient TEER drop” value (100 μM histamine) was 5 to 7 min and the “time for TEER to return to initial levels” value (150 μM histamine) was at most 15 min. For the same molecule, the “period of transient TEER drop” value (150 μM histamine) was 8 to 15 min.
